Test results taken from patent publication US9884048B2, “ERK inhibitors” (Merck Sharp & Dohme Corp., priority 2014, dated 2018).

target: phosphorylated active hERK2 enzyme (Homo sapiens (Human), UniProt P28482); settings: not given
Sequence (P28482 whole entry): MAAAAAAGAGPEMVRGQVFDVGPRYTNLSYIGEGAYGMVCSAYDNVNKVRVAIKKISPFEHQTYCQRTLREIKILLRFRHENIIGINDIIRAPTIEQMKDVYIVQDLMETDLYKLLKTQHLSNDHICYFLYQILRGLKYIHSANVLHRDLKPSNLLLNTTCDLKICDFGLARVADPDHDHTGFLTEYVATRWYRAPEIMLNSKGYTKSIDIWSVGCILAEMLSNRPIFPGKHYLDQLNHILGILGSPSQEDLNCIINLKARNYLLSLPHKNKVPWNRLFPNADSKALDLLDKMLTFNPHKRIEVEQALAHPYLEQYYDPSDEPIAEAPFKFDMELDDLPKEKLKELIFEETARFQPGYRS

| IC50 | SMILES |
| --- | --- |
| 33.7 nM | CCO[C@H]1CCC[C@@H]1NC(=O)Nc1cc2cnn(-c3ccnc(C)c3)c2cn1 (racemic) [Example 147, Racemic 1-[(1S,2S) and (1R,2R)-2-ethoxycyclopentyl]-3-[1-(2-methylpyridin-4-yl)-1H-pyrazolo[3,4-c]pyridin-5-yl]urea] |
| 4.29 nM | Cc1cc(-n2ncc3cc(NC(=O)N[C@@H](c4ccccc4)C(C)(C)O)nc(CO)c32)ccn1 [Example 254, 1-[7-(hydroxymethyl)-1-(2-methylpyridin-4-yl)-1H-pyrazolo[3,4-c]pyridin-5-yl]-3-[(1S)-2-hydroxy-2-methyl-1-phenylpropyl]urea] |

same assay, conditions: read-out: ERK2 IC50; IMAP-FP assay; 0.5 nM hERK2, 30 μM ATP; 10 point titration, 3 μM starting concentration

| SMILES | IC50 |
| --- | --- |
| Cc1cc(-n2ncc3cc(NC(=O)NCCN4CCOCC4)ncc32)ccn1 [Example 109, 1-[1-(2-methylpyridin-4-yl)-1H-pyrazolo[3,4-c]pyridin-5-yl]-3-(2-morpholin-4-ylethyl)urea] | 627 nM |
| Cc1cc(-n2ncc3cc(NC(=O)NCC4CN(C(C)C(F)(F)F)C4)ncc32)ccn1 (stereo not shown) [Example 27, 1-[1-(2-methylpyridin-4-yl)-1H-pyrazolo[3,4-c]pyridin-5-yl]-3-{[1-(2,2,2-trifluoro-1-methylethyl)azetidin-3-yl]methyl}urea] | 122 nM |
| C=CC(=O)NCc1nc(NC(=O)N[C@H](C)c2ccccc2)cc2cnn(C)c12 [Example 324, N-{[1-Methyl-5-({[(1R)-1-phenylethyl]carbamoyl}amino)-1H-pyrazolo[3,4-c]pyridin-7-yl]methyl}prop-2-enamide] | 432 nM |
| Cc1cc(-n2ncc3cc(NC(=O)N[C@H](COC(C)C)c4ccccc4)ncc32)ccn1 [Example 135, 1-[(1S)-2-(1-methylethoxy)-1-phenylethyl]-3-[1-(2-methylpyridin-4-yl)-1H-pyrazolo[3,4-c]pyridin-5-yl]urea] | 0.786 nM |
| Cc1cc(-n2ncc3cc(NC(=O)N[C@H](C)c4ccccc4)nc(COCCOCc4ccccc4)c32)ccn1 [Example 252, 1-[7-{[2-(benzyloxy)ethoxy]methyl}-1-(2-methylpyridin-4-yl)-1H-pyrazolo[3,4-c]pyridin-5-yl]-3-[(1R)-1-phenylethyl]urea] | 25.3 nM |
| COCCCn1ncc2cc(NC(=O)N[C@H](C)c3ccccc3)ncc21 [Example 235, 1-[1-(3-methoxypropyl)-1H-pyrazolo[3,4-c]pyridin-5-yl]-3-[(1R)-1-phenylethyl]urea] | 1520 nM |
| Cc1cc(-n2ncc3cc(NC(=O)N[C@H]4CN(CC(F)(F)F)C[C@@H]4c4ccccc4)ncc32)ccn1 [Example 156, 1-[1-(2-methylpyridin-4-yl)-1H-pyrazolo[3,4-c]pyridin-5-yl]-3-[(3R,4S)-4-phenyl-1-(2,2,2-trifluoroethyl)pyrrolidin-3-yl)urea] | 8.85 nM |
| C[C@@H](NC(=O)Nc1cc2cnn(-c3cnn(C)c3)c2cn1)c1ccc(F)c(Cl)c1 [Example 205, (R)-1-(1-(3-chloro-4-fluorophenyl)ethyl)-3-(1-(1-methyl-1H-pyrazol-4-yl)-1H-pyrazolo[3,4-c]pyridin-5-yl)urea] | 12.1 nM |
| Cc1cc(-n2ncc3cc(NC(=O)NC4CCC(c5ccccc5)C4)ncc32)ccn1 (stereo not shown) [Example 178, 1-[1-(2-methylpyridin-4-yl)-1H-pyrazolo[3,4-c]pyridin-5-yl]-3-(3-phenylcyclopentyl)urea] | 37.1 nM |
| Cc1cnc(-n2ncc3cc(NC(=O)N[C@H](C)c4ccccc4)ncc32)cn1 [Example 212, 1-[1-(5-methylpyrazin-2-yl)-1H-pyrazolo[3,4-c]pyridin-5-yl]-3-[(1R)-1-phenylethyl]urea] | 521 nM |
| CO[C@H]1CNC[C@@H]1NC(=O)Nc1cc2cnn(-c3ccnc(C)c3)c2cn1 [Example 132, 1-[(3S,4S)-4-methoxypyrrolidin-3-yl]-3-[1-(2-methylpyridin-4-yl)-1H-pyrazolo[3,4-c]pyridin-5-yl]urea] | 168 nM |
| Cc1cc(-n2ncc3cc(NC(=O)NCCC4CCOC4)ncc32)ccn1 (stereo not shown) [Example 83, 1-[1-(2-methylpyridin-4-yl)-1H-pyrazolo[3,4-c]pyridin-5-yl]-3-[2-(tetrahydrofuran-3-yl)ethyl]urea] | 64.7 nM |
| CC(C)(C)OC(=O)N1CCc2cnc(-n3ncc4cc(NC(=O)N[C@@H](c5ccc(F)cc5)C(C)(C)O)ncc43)nc2C1 [Example 234, tert-butyl 2-[5-({[(1S)-1-(4-fluorophenyl)-2-hydroxy-2-methylpropyl]carbamoyl}amino)-1H-pyrazolo[3,4-c]pyridin-1-yl]-5,8-dihydropyrido[3,4-d]pyrimidine-7(6H)-carboxylate] | 1810 nM |
| O=C(NCCc1ccccc1F)Nc1cc2cnn(-c3ccncc3)c2cn1 [Example 40, 1-[2-(2-fluorophenyl)ethyl]-3-(1-pyridin-4-yl-1H-pyrazolo[3,4-c]pyridin-5-yl)urea] | 9.2 nM |
| Cc1cc(-n2ncc3cc(NC(=O)NCc4nonc4C)ncc32)ccn1 [Example 118, 1-[(4-methyl-1,2,5-oxadiazol-3-yl)methyl]-3-[1-(2-methylpyridin-4-yl)-1H-pyrazolo[3,4-c]pyridin-5-yl]urea] | 5.38 nM |
| Cn1ncc2cc(NC(=O)NC3CCCN(Cc4c(F)cccc4F)C3)ncc21 (stereo not shown) [Example 236, 1-[1-(2,6-difluorobenzyl)piperidin-3-yl]-3-(1-methyl-1H-pyrazolo[3,4-c]pyridin-5-yl)urea] | 531 nM |
| Cc1cc(-n2ncc3cc(NC(=O)NCC4(c5ccccc5)CCOC4)ncc32)ccn1 (stereo not shown) [Example 69, 1-[1-(2-methylpyridin-4-yl)-1H-pyrazolo[3,4-c]pyridin-5-yl]-3-[(3-phenyltetrahydrofuran-3-yl)methyl]urea] | 17.7 nM |
| Cc1cc(-n2ncc3cc(NC(=O)N[C@@H]4CN(C)[C@@H](C)[C@H]4c4ccccc4C)ncc32)ccn1 [Example 105, 1-[(3S,4S,5S)-1,5-dimethyl-4-(2-methylphenyl)-pyrrolidin-3-yl]-3-[1-(2-methylpyridin-4-yl)-1H-pyrazolo[3,4-c]pyridin-5-yl)urea] | 2.15 nM |
| Cc1cc(-n2ncc3cc(NC(=O)NCCN(C)C)ncc32)ccn1 [Example 15, 1-(2-(dimethylamino)ethyl)-3-(1-(2-methylpyridin-4-yl)-1H-pyrazolo[3,4-c]pyridin-5-yl)urea] | 1430 nM |
| Cc1cc(-n2ncc3cc(NC(=O)NC4CCN(Cc5ccccc5C#N)C4)ncc32)ccn1 (stereo not shown) [Example 280, 1-[1-(2-cyanobenzyl)pyrrolidin-3-yl]-3-[1-(2-methylpyridin-4-yl)-1H-pyrazolo[3,4-c]pyridin-5-yl]urea] | 4.35 nM |
| C[C@@H](NC(=O)Nc1cc2cnn(C(C)(C)C)c2c(CO)n1)c1ccccc1 [Example 255, 1-[1-tert-butyl-7-(hydroxymethyl)-1H-pyrazolo[3,4-c]pyridin-5-yl]-3-[(1R)-1-phenylethyl]urea] | 1260 nM |
| Cc1cc(-n2ncc3cc(NC(=O)N[C@H]4COC[C@@H]4c4ccccc4)ncc32)ccn1 [Example 17, 1-[1-(2-methylpyridin-4-yl)-1H-pyrazolo[3,4-c]pyridin-5-yl]-3-[(3R,4R)-4-phenyltetrahydrofuran-3-yl]urea] | 1.83 nM |

Next, values leading:

| IC50 | SMILES |
| --- | --- |
| 73.1 nM | Cc1cc(-n2ncc3cc(NC(=O)NCc4ccc5c(c4)CC(=O)N5)ncc32)ccn1 [Example 74, 1-[1-(2-methylpyridin-4-yl)-1H-pyrazolo[3,4-c]pyridin-5-yl]-3-[(2-oxo-2,3-dihydro-1H-indol-5-yl)methyl]urea] |
| 882 nM | COC[C@@H](NC(=O)Nc1cc2cnn(C)c2cn1)c1ccccc1 [Example 237, 1-[(1S)-2-methoxy-1-phenylethyl]-3-(1-methyl-1H-pyrazolo[3,4-c]pyridin-5-yl)urea] |
| 1180 nM | Cc1cc(-n2ncc3cc(NC(=O)N[C@@H](C)c4ccccn4)ncc32)ccn1 [Example 203, 1-[1-(2-methylpyridin-4-yl)-1H-pyrazolo[3,4-c]pyridin-5-yl]-3-[(1S)-1-pyridin-2-ylethyl]urea] |
| 16.9 nM | Cc1cc(-n2ncc3cc(NC(=O)NCCN4CC5CC4CN5c4ccccc4)ncc32)ccn1 (stereo not shown) [Example 70, 1-[1-(2-methylpyridin-4-yl)-1H-pyrazolo[3,4-c]pyridin-5-yl]-3-[2-(5-phenyl-2,5-diazabicyclo[2.2.1]hept-2-yl)ethyl]urea] |
| 13.9 nM | Cc1cc(-n2ncc3cc(NC(=O)N[C@H]4CCC[C@H]4Cc4ccccc4)ncc32)ccn1 [Example 160, 1-[(1S,2S)-2-benzylcyclopentyl]-3-[1-(2-methylpyridin-4-yl)-1H-pyrazolo[3,4-c]pyridin-5-yl)urea] |
| 19.4 nM | O=C(Nc1cc2cnn(-c3ccncc3)c2cn1)N[C@@H](c1ccccc1)C(F)(F)F [Example 38, 1-(1-pyridin-4-yl-1H-pyrazolo[3,4-c]pyridin-5-yl)-3-[(1S)-2,2,2-trifluoro-1-phenylethyl]urea] |
| 103 nM | COCCNCc1nc(NC(=O)N[C@H](C)c2ccccc2)cc2cnn(-c3ccnc(C)c3)c12 [Example 321, 1-[7-{[(2-methoxyethyl)amino]methyl}-1-(2-methylpyridin-4-yl)-1H-pyrazolo[3,4-c]pyridin-5-yl]-3-[(1R)-1-phenylethyl]urea] |
| 590 nM | COC[C@@H](NC(=O)Nc1cc2cnn(-c3ccnc(C)c3)c2cn1)c1ccc(F)cc1 [Example 33, 1-[(1S)-1-(4-fluorophenyl)-2-methoxyethyl]-3-[1-(2-methylpyridin-4-yl)-1H-pyrazolo[3,4-c]pyridin-5-yl]urea] |
| 289 nM | CC(=O)NCc1nc(NC(=O)N[C@H](C)c2ccccc2)cc2cnn(-c3ccc(F)cc3)c12 [Example 325, N-{[1-(4-fluorophenyl)-5-({[(1R)-1-phenylethyl]carbamoyl}amino)-1H-pyrazolo[3,4-c]pyridin-7-yl]methyl}acetamide] |
| 3.54 nM | CO[C@H]1CN(Cc2c(F)cccc2F)C[C@@H]1NC(=O)Nc1cc2cnn(-c3ccnc(C)c3)c2cn1 (single isomer, unassigned) [Example 274, 1-[(3R,4R) or (3S, 4S)-1-(2,6-difluorobenzyl)-4-methoxypyrrolidin-3-yl]-3-[1-(2-methylpyridin-4-yl)-1H-pyrazolo[3,4-c]pyridin-5-yl]urea] |
